Literature values as cited in patent US7615533B2, “TPO peptide compounds for treatment of anemia” (Janssen Pharmaceutica N.V., priority 2004, dated 2009).

System: rhesus monkeys exposed to 5 Gy total body irradiation
Settings: 5 Gy total body irradiation (300-kV x-rays); cited from earlier work

human recombinant TPO: human recombinant thrombopoietin, glycoprotein; comparator in the reporter assay and cited in the background
reticulocyte regeneration initiated earlier than in placebo-treated animals: 10 days
